Test results: ChEMBL document CHEMBL2057164, “Head-to-head prenyl tranferases: anti-infective drug targets” (J Med Chem, 2012)

Assay: Inhibition of Trypanosoma cruzi squalene synthase

Ki: 1200 nM
Compound: CC(C)=CCC/C(C)=C/CNCCNC1C2CC3CC(C2)CC1C3 (stereo unspecified) [SQ109]
